# Data from BindingDB's records for doi:10.1021/acs.jmedchem.9b01508 (Virginia Tech, 2020).
# Assay: Inhibition of human SphK2 expressed in Saccharomyces cerevisiae KYA1 assessed as yeast growth measured after 24 hrs
row,Structure (SMILES),EC50
1,CC(C)(C)c1cc(-c2noc([C@@H]3CCCN3C(=N)N)n2)ccc1OCc1ccc(C(F)(F)F)cc1,73 nM
2,C=CCc1cc(-c2noc([C@@H]3CCCN3C(=N)N)n2)ccc1OCc1ccc(C(F)(F)F)cc1,84 nM
3,CCCc1cc(-c2noc([C@@H]3CCCN3C(=N)N)n2)ccc1OCc1ccc(C(F)(F)F)cc1,37 nM
4,CC(C)c1cc(-c2noc([C@@H]3CCCN3C(=N)N)n2)ccc1OCc1ccc(C(F)(F)F)cc1,32 nM
5,N=C(N)N1CCC[C@H]1c1nc(-c2ccc(OCc3ccc(C(F)(F)F)cc3)c(C3CC3)c2)no1,50 nM
6,CCc1cc(-c2noc([C@@H]3CCCN3C(=N)N)n2)ccc1OCc1ccc(C(F)(F)F)cc1,146 nM
7,N=C(N)N1CCC[C@H]1c1nc(-c2ccc(OCc3ccc(C(F)(F)F)cc3)c(C(F)(F)F)c2)no1,59 nM
